Like-named read-outs stand apart in the source and are kept apart here.
Legend:
cathepsin S [1] = target: T1, cathepsin S (Homo sapiens, UniProt P25774); assay: Kinetics of cathepsin S inhibition by metal ions, fluorogenic substrate Z-Val-Val-Arg-AMC; format: biochemical; settings: for Mechanism: specific velocity plot / titration
T1 construct: made in house; host or cells: E. coli

cathepsin K [2] = target: T2, cathepsin K (Homo sapiens, UniProt P43235); assay: Kinetics of cathepsin K inhibition by metal ions, fluorogenic substrate Z-Phe-Arg-AMC; format: biochemical; settings: for Mechanism: specific velocity plot / titration
T2 construct: made in house; host or cells: E. coli
T2 sequence (P43235 115-329): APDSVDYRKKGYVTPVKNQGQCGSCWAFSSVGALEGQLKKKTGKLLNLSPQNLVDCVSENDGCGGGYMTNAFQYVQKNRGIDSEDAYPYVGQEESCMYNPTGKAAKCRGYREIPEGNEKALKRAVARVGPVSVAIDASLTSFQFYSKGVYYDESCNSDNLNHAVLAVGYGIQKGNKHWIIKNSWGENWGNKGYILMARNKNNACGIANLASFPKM

cathepsin L [3] = target: T3, cathepsin L (Homo sapiens, UniProt P07711); assay: Kinetics of cathepsin L inhibition by metal ions, fluorogenic substrate Z-Leu-Arg-AMC; format: biochemical; settings: for Mechanism: specific velocity plot
T3 construct: made in house; host or cells: E. coli

cathepsin S [4] = target: T1, cathepsin S; assay: Degradation of insoluble bovine neck ligament elastin by cathepsin S; format: biochemical; settings: metal ions 0.5 mM
Procedure: (§1) Degradation of insoluble elastin was performed and analyzed according to the protocol in ref. [51]. Briefly, reactions were performed using 200 µL samples, each containing 1 mg of insoluble bovine neck ligament elastin. The enzymes were added to a final concentration of 0.2 µM and the metal ions to a final concentration of 0.5 mM. Samples were incubated at 37 °C for 120 min on an Eppendorf Thermomixer with shaking at 1200 rpm, and the reactions were then stopped by the addition of trichloroacetic acid to a final concentration of 5% (w/V). Samples were cleared by centrifugation and 100 µL of the supernatant was mixed with 1400 µL of 0.2 M sodium borate buffer and 500 µL of a 0.15 mg/mL solution of fluorescamine in acetone. The fluorescence of the samples was measured at an excitation wavelength of λex = 390 nm and emission wavelength of λem = 480 nm. Blank samples without added enzyme were run in parallel and their fluorescence values were subtracted from the samples. Experiments were performed in three replicates of each sample and each experiment was repeated multiple times to assure reproducibility of the results.

cathepsins L, K, and S = assay: Kinetics of inhibition, summary over all tested peptidases; format: biochemical, human; settings: range over all peptidases tested (cathepsins L, K, S); read-out: equilibrium dissociation constants (inhibition constants)
cathepsin K [5] = target: T2, cathepsin K; assay: Degradation of insoluble bovine neck ligament elastin by cathepsin K; format: biochemical; settings: metal ions 0.5 mM
Procedure: as §1

cathepsin L [6] = target: T3, cathepsin L; assay: Degradation of insoluble bovine neck ligament elastin by cathepsin L; format: biochemical; settings: metal ions 0.5 mM
Procedure: as §1

[7] = system: cell growth and metabolism; design: method as in PMID 7929991; settings: cited from earlier work
[8] = Z-Val-Val-Arg-AMC, 25 °C, 0.1 M sodium acetate buffer pH 5.5, read-out: KX
[9] = Z-Phe-Arg-AMC, 25 °C, 0.1 M sodium acetate buffer pH 5.5, read-out: KX
[10] = Z-Leu-Arg-AMC, 25 °C, 0.1 M sodium acetate buffer pH 5.5, read-out: KX
[11] = effect on catalytic rate, general modifier mechanism
[12] = effect on substrate affinity, general modifier mechanism

T1 sequence (P25774 115-331): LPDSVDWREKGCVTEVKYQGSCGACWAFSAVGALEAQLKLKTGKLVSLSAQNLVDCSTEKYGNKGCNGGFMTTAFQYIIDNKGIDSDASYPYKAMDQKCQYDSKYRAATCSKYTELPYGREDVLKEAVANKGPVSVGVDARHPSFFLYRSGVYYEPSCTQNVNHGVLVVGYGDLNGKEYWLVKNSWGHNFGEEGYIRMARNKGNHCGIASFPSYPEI
T3 sequence (P07711 114-333): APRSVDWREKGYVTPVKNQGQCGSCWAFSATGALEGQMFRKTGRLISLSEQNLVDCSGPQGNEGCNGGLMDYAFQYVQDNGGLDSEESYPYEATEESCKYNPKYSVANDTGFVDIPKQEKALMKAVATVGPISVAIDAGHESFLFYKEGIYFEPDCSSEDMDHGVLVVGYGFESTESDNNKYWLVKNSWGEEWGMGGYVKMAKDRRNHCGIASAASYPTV

## [Pb+2] [Pb^2+, reference compound]
Cathepsin S [1]; [8]
  Ki: 50 ± 5 µM
Cathepsin S [1]
  Mechanism: Linear specific
Cathepsin K [2]; [9]
  Ki: 135 ± 13 µM
Cathepsin K [2]
  Mechanism: Linear specific
Cathepsin L [3]; [10]
  Ki: 26 ± 12 µM
Cathepsin L [3]
  Mechanism: Linear specific

## [Zn+2] [Zn^2+]
Cathepsin S [4]
  inhibition of elastin degradation, comparison in words: strongest inhibitor
Cathepsin S [1]; [8]
  Ki: 2.9 ± 0.5 µM
Cathepsin S [1]
  Mechanism: Linear specific
Cathepsin K [2]; [9]
  Ki: 7.3 ± 0.3 µM
Cathepsin K [2]
  Mechanism: Linear specific
Cathepsin L [3]; [10]
  Ki: 7.5 ± 0.9 µM
Cathepsin L [3]
  Mechanism: Linear specific
Cathepsins L, K, and S
  Ki: ~1 µM
Cathepsin K [5]
  inhibition of elastin degradation, comparison in words: strongest inhibitor

## O=[N+]([O-])[O-].O=[N+]([O-])[O-].O=[N+]([O-])[O-].[Ga+3] [Ga^3+, Ga(NO3)3]
Cathepsin S [1]; [8]
  Ki: 3.7 ± 0.6 µM
Cathepsin S [1]; [11]
  β: 3.3 ± 0.5
Cathepsin S [1]; [12]
  α: 11.3 ± 1.0
Cathepsin S [1]; read-out: KX
  Ki: ~4 µM
Cathepsin S [1]
  Mechanism: Hyperbolic mixed
Cathepsin S [1]; synthetic substrate
  residual enzyme activity at saturation: about 20%
Cathepsin L [6]
  inhibition of elastin degradation, comparison in words: most potent inhibitor
Cathepsin K [2]; [9]
  Ki: 4.1 ± 0.8 µM
Cathepsin K [2]; [11]
  β: 2.4 ± 1.4
Cathepsin K [2]; [12]
  α: 11.5 ± 1.0
Cathepsin K [2]; read-out: KX
  Ki: ~4 µM
Cathepsin K [2]
  Mechanism: Hyperbolic mixed
Cathepsin K [2]; synthetic substrate
  residual enzyme activity at saturation: about 20%
Cathepsin L [3]; [10]
  Ki: 0.6 ± 0.04 µM
Cathepsin L [3]; read-out: KX
  Ki: 0.6 µM
Cathepsin L [3]
  Mechanism: Linear specific
[7]
  toxic effects on cell growth and metabolism: no significant toxic effects
